Assays:
PCNA ubiquitination = test: Alpha assay for overall PCNA ubiquitination; type: biochemical, human; settings: for IC50: read-out: IC50 PCNA–Ub, SE and 95% CI in cell
Mms2–Ubc13 = Mms2–Ubc13 (Homo sapiens, UniProt P61088+Q15819); test: Mms2–Ubc13∼ubiquitin thioester formation gel-based assay; type: biochemical; settings: at 100 μM, silver-stained gel
HeLa cells = test: Cell survival; type: cell-based; settings: Homo sapiens, 24 h, read-out: IC50 (μM) for cell survival
Uba1 = target: T1, Uba1 (Homo sapiens, UniProt P22314); test: Uba1∼ubiquitin thioester formation Alpha assay; type: biochemical; settings: for inhibition of Uba1∼ubiquitin thioester formation: Alpha assay
T1 sequence (P22314 1-1058): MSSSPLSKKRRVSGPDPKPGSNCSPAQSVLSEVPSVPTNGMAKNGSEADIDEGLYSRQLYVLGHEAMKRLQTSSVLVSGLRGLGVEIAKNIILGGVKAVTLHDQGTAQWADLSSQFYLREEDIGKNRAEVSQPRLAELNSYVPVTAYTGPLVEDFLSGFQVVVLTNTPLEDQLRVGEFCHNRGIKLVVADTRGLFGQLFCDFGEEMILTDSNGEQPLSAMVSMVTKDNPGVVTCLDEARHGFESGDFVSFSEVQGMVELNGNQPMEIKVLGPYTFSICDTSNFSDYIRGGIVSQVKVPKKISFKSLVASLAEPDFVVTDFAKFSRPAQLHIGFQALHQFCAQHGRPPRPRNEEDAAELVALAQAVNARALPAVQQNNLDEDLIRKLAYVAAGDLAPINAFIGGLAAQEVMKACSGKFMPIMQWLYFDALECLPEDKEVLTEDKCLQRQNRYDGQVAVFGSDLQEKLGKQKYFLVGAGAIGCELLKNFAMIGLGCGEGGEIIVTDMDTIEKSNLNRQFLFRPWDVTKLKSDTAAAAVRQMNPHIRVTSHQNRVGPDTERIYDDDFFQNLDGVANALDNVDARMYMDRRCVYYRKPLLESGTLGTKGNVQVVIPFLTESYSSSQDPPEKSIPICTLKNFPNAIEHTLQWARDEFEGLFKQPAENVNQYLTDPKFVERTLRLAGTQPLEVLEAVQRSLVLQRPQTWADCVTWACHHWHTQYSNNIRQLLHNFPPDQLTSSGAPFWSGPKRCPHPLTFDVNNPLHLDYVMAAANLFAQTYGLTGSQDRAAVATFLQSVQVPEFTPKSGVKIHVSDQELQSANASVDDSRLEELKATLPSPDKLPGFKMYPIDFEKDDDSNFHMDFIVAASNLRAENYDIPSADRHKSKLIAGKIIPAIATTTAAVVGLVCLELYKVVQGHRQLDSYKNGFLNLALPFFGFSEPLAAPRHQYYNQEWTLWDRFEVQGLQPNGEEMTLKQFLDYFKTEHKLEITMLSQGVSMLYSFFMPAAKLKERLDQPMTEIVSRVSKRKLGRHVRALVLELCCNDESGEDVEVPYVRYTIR

Rad6–Rad18 interaction = Rad6–Rad18 interaction (Homo sapiens, UniProt P63146); test: Rad6–Rad18 interaction Alpha assay; type: binding; settings: for disruption of the Rad6–Rad18 interaction: Alpha assay
Sequence of Rad6–Rad18 interaction (P63146 whole entry): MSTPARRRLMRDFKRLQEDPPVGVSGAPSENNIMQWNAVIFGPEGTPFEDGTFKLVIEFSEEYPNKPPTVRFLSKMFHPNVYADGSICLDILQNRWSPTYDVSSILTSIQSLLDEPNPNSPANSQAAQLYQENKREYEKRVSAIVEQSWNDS

Rad6–Ubr1 interaction = Rad6–Ubr1 interaction (Homo sapiens, UniProt P63146); test: Rad6–Ubr1 interaction Alpha assay; type: binding
Sequence of Rad6–Ubr1 interaction (P63146 whole entry): as above

Rad6 [1] = target: T2, Rad6 (Homo sapiens, UniProt P63146); test: biochemical; type: biochemical; settings: for inhibition of formation of the Rad6∼ubiquitin thioester conjugate: Alpha assay
T2 sequence (P63146 whole entry): as above

Rad18 [2] = target: Rad18 (Homo sapiens, UniProt Q9NS91); test: Microscale thermophoresis, binding to GFP-Rad18; settings: low concentrations used for the Rad6-binding study
Sequence of Rad18 (Homo sapiens, UniProt Q9NS91) (Q9NS91 whole entry): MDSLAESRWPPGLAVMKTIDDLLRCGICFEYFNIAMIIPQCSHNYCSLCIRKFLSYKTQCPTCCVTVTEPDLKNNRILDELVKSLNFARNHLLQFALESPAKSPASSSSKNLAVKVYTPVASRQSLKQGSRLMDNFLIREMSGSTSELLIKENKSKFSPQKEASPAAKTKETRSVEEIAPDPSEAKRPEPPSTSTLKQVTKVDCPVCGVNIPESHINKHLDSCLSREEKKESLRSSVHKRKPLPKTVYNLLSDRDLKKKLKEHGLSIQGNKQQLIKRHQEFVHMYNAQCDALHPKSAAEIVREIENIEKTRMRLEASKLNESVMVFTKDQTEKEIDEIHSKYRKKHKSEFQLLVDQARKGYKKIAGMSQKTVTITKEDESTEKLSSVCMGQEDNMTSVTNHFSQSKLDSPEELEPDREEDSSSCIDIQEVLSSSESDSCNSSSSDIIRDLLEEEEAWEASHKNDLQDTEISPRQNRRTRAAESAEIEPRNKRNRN

Rad6 [3] = target: T2, Rad6; test: Microscale thermophoresis, binding to GFP-Rad6
Rad18 [4] = target: Rad18 (Homo sapiens, UniProt P63146); test: biochemical; type: biochemical; settings: for inhibition of Rad18 autoubiquitination: Alpha assay
Sequence of Rad18 (Homo sapiens, UniProt P63146) (P63146 whole entry): as the sequence (P63146 whole entry) above

Sequence of Mms2–Ubc13 (P61088 whole entry): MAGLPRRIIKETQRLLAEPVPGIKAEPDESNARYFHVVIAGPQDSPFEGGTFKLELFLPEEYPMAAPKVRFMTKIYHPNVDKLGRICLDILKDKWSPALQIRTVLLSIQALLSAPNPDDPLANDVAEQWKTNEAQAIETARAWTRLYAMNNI
Sequence of Mms2–Ubc13 (Q15819 whole entry): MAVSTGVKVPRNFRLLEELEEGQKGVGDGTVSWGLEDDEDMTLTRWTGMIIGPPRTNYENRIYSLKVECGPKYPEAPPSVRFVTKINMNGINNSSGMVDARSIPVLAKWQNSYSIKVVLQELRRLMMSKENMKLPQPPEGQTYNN

Structure (SMILES)	effect on PCNA ubiquitination (PCNA ubiquitination; Figure 3G)	IC50 (PCNA ubiquitination) [µM]	Mms2–Ubc13∼Ub inhibition on gel (Mms2–Ubc13)	IC50 (HeLa cells) [µM]	IC50 (Uba1) [µM]	IC50 (Rad6–Rad18 interaction) [µM]	disruption of the Rad6–Rad18 interaction (Rad6–Rad18 interaction)	IC50 (Rad6–Ubr1 interaction) [µM]	IC50 (Rad6 [1]) [µM]	inhibition of formation of the Rad6∼ubiquitin thioester conjugate (Rad6 [1])	binding to Rad18 (Rad18 [2])	Kd (Rad6 [3]) [µM]	IC50 (Rad18 [4]) [µM]	inhibition of Rad18 autoubiquitination (Rad18 [4])	inhibition of Uba1∼ubiquitin thioester formation (Uba1)	Rad6–Ubr1 inhibition by Alpha (Rad6–Ubr1 interaction; at 50 μM)
COc1ccc(C2c3cc(O)c(OC)cc3Oc3cc(OC)c(O)cc32)cc1 [NSC 348718, 3,6-dimethoxy-9-(4-methoxyphenyl)-9H-xanthene-2,7-diol]	inactive	> 100	No inhibition on gel at 100 μM	27.7	> 100	–	–	–	–	–	–	–	–	–	–	–
Cc1cc2c(-c3ccccc3)c3cc(C)c(N)cc3nc2cc1N [NSC 71947, 2,7-dimethyl-9-phenylacridine-3,6-diamine]	–	24.9	No inhibition on gel at 100 μM	11.8	> 100	–	–	–	–	–	–	–	–	–	–	–
O=c1cc2oc3cc(O)c(O)cc3c(-c3ccccc3O)c-2cc1O [NSC 9037, 2,6,7-trihydroxy-9-(2-hydroxyphenyl)-3H-xanthen-3-one]	–	4.54	No inhibition on gel at 100 μM	62.2	> 100	6.19	disrupt	> 50	8.9	inhibit	very weak binding	3.79 ± 2.94	4.46	inhibit	–	–
O=C(O)c1cccc(-c2c3ccc(=O)cc-3oc3cc(O)ccc23)c1 [NSC 119888, 3-(3-hydroxy-6-oxoxanthen-9-yl)benzoic acid]	–	–	No inhibition on gel at 100 μM	75.3	53.8	–	–	–	–	–	–	–	–	–	inhibit	–
O=C(O)c1ccc(-c2c3ccc(=O)cc-3oc3cc(O)ccc23)cc1 [NSC 119891, 4-(3-hydroxy-6-oxoxanthen-9-yl)benzoic acid]	–	–	No inhibition on gel at 100 μM	208	> 100	–	–	–	–	–	–	–	–	–	–	–
CN(C)c1ccc(-c2c3cc(O)c(=O)cc-3oc3cc(O)c(O)cc23)cc1 [NSC 80693, 9-[4-(dimethylamino)phenyl]-2,6,7-trihydroxy-3H-xanthen-3-one]	–	4.28	No inhibition on gel at 100 μM	7.67	> 100	14.6	disrupt	–	91.8	inhibit	–	–	13.2	inhibit	–	Little inhibition by Alpha at 50 μM
O=C(O)C1CC=CCC1c1c2ccc(=O)cc-2oc2cc(O)ccc12 (stereo not drawn) [NSC 157411, 6-(3-Hydroxy-6-oxo-xanthen-9-yl)cyclohex-3-ene-1-carboxylic acid]	–	8.44	No inhibition on gel at 100 μM	428	24.8	–	–	–	–	–	–	–	–	–	inhibit	–

Source: publication PMC8958325 (iScience, 2022)
